Results published in US20190169218A1, “AMPHIPATHIC COMPOUND HAVING NOVEL PENTA-SACCHARIDE HYDROPHILIC GROUP AND USE THEREOF” (Industry-University Cooperation Foundation Hanyang …, priority 2016, published 2019).

Columns and labels:
[1] = system: T4L-β2AR-Gs or β2AR-Gs complexes; conditions: purified by DDM, 4° C., reported in the prior art; cited from earlier work
[2] = target: T1, boron transporter (BOR1) BOR1-GFP fusion protein (Arabidopsis thaliana, UniProt Q8VYR7); test: solubilization (extraction) of BOR1-GFP fusion protein from membranes; conditions: amphipathic compound at 1.0 wt %
T1 construct: made in house; host or cells: Saccharomyces cerevisiae FGY217
Procedure: The ability of PSAs and PSEs to solubilize membrane proteins and to stabilize the structures of membrane proteins was evaluated using boron transporter (BOR1), a membrane protein. BOR1 was isolated from Arabidopsis thaliana, and was expressed in the form of a fusion protein having a GFP tag at the C-terminus in Saccharomyces cerevisiae FGY217 cells. This fusion protein has been proven to have boron transporting activity and is therefore involved in both structural and functional analysis of membrane proteins.
The ability of amphipathic compound PSAs and PSEs to solubilize the boron transporter (BOR1) membrane protein was evaluated.
Specifically, membranes containing BOR1-GFP fusion proteins were treated with an existing amphipathic compound (DDM), PSAs (PSA-C9, PSA-C10 and PSA-C11), or PSEs (PSE-C9, PSE-C11 and PSE-C13) at a concentration of 1.0 wt %. The solubilization efficiencies of PSA-C9, PSA-C10 and PSE-C9 were about 80% similar to the solubilization efficiency of DDM. In particular, the BOR1-GFP protein was quantitatively extracted (˜100%) using PSE-C11 having medium length chains, thus confirming that PSE-C11 is particularly useful for solubilization of BOR1-GFP.
Specifically, Arabidopsis thaliana-derived BOR1 was expressed in the form of a fusion protein having a GFP tag at the C-terminus in Saccharomyces cerevisiae FGY217 cells. The cells were grown in an URA-medium supplemented with 0.1% glucose. 2% galactose was added to the cell culture to induce protein expression and the cells were cultured at 20° C. for 18 hours (see Drew, D. et al., Nat. Protoc. 2008, 3, 784-798.). After culture, the cells were harvested and used to obtain the cell membranes (see Leung, J. et al., Protein Expr. Purif. 2010, 72, 139-146.). Membranes containing BOR1-GFP fusion proteins were diluted to a final total protein concentration of 2.8 mg/mL in PBS (pH7.4) supplemented with 1 wt % DDM, 1 wt % PSAs (PSA-C9, PSA-C10 or PSA-C11) or 1 wt % PSEs (PSE-C9, PSE-C11 or PSE-C13). The diluted samples were incubated at 4° C. for 1 hour with gentle shaking, and insoluble substances were removed by centrifugation at 14,000 g for 1 hour at 4° C. Supernatants containing the dissolved protein samples were incubated for 10 minutes at the specified temperature (35, 40, 45 or 50° C.), and strongly agglutinated proteins were removed by centrifugation at 14,000 g for 10 minutes at 4° C. 200 μL aliquots were taken from the supernatant and injected into a Superose 6 10/300 column equilibrated with 20 mM Tris-HCl (pH 7.5), 150 mM NaCl and 0.03% DDM. Each elution fraction was collected from a retention volume of 6.4 mL (i.e., after 6.4 mL of solution had passed), and added to a well of a clear bottom 96-well plate at a volume of 200 μL. GFP fluorescence generated in each fraction was measured using an excitation wavelength of 470 nm and an emission wavelength of 512 nm.

[3] = target: T2, human β2 adrenergic receptor (β2AR) (Homo sapiens, UniProt P07550); test: extraction and solubilization of β2AR directly from cell membranes ([3H]-DHA activity, SEC); conditions: for SEC peak of extracted β2AR: buffer not containing amphipathic compounds
T2 construct: Flag; made in house
T2 sequence (P07550 whole entry): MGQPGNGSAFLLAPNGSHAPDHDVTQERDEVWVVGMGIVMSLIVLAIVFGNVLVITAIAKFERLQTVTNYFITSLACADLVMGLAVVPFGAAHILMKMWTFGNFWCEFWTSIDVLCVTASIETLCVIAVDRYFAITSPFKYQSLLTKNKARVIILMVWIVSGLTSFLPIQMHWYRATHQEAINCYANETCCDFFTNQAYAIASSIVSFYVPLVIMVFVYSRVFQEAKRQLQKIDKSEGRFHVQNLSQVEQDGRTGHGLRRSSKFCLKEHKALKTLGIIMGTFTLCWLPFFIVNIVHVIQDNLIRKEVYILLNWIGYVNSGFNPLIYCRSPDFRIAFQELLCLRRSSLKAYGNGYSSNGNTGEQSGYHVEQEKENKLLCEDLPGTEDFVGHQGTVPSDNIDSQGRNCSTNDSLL
Procedure: The best, PSE-C11, among tested PSAs/PSEs was used to extract β2ARs directly from the cell membranes. Receptors were treated with 1.0 wt % PSE-C11 or DDM, and the activity of the receptors solubilized in PSE-C11 or DDM was measured using a radiolabeled ligand, [^3H]-DHA.
Specifically, experiments to extract and solubilize receptors from the cell membranes were performed as follows. 10 mL of a PSE-C11 amphipathic compound buffer (20 mM HEPES (pH 7.5), 100 mM NaCl, 1.0 wt % PSE-C11) was added to 1 g of an insect cell (Sf9) pellet expressing β2ARs. The mixture was stirred for solubilization for 1 hour. After performing centrifugation at 12,000 g for 20 minutes, a supernatant was collected and loaded onto a M1 Flag column in the presence of 2 mM CaCl2. The column was washed with a PSE-C11 buffer (20 mM HEPES (pH 7.5), 100 mM NaCl, 0.2 wt % amphipathic compound). Receptors were eluted with 20×CMC PSE-C11, 5 mM EDTA and 0.2 mg/mL free Flag peptides. To measure the activity of the receptors solubilized and purified by DDM or PSE-C11, 0.2 pmol of β2ARs was incubated with […] [^3H]-DHA and each amphipathic compound at room temperature for 30 minutes, and the activity of β2ARs was measured. The following procedure was performed in the same manner as described in Example 9-3. Each measurement was performed three times. The receptors solubilized in 20×CMC PSE-C11 or 20×CMC DDM were also applied to SEC under a buffer (20 mM HEPES (pH 7.5), 100 mM NaCl) not containing an amphipathic compound (PSE-C11 or DDM).

**Q.** Which “stability of T4L-β2AR-Gs complexes” value [1] does the source give for `CCCCCCCCCCCCO[C@@H]1O[C@H](CO)[C@@H](O[C@H]2O[C@H](CO)[C@@H](O)[C@H](O)[C@H]2O)[C@H](O)[C@H]1O` [DDM, n-dodecyl-β-D-maltopyranoside, reference compound] here?
**A.** The value was “complex separation was observed even after 2 days of incubation”.

**Q.** And the “solubilization efficiency of BOR1-GFP” value [2]?
**A.** Its value is “about 80%”.

**Q.** And the “SEC peak of extracted β2AR” value [3]?
**A.** The value was “no peak corresponding to the proteins was observed”.

**Q.** Which “solubilization efficiency of BOR1-GFP” value [2] does the source give for `CCCCCCCCCCCOCC(COCCCCCCCCCCC)O[C@@H]1OC(CO[C@@H]2OC(CO)[C@@H](O)C(O)C2O)[C@@H](O[C@@H]2OC(CO)[C@@H](O)C(O)C2O)C(O[C@@H]2OC(CO)[C@@H](O)C(O)C2O)C1O[C@@H]1OC(CO)[C@@H](O)C(O)C1O` (stereo partly drawn) [PSE-C11] here?
**A.** The value was about 100%.

**Q.** What about the “activity of β2AR extracted from cell membranes ([3H]-DHA)” value ([3]; 1.0 wt % PSE-C11 or DDM) of the same compound?
**A.** Its value is “higher activity than proteins extracted by DDM”.

**Q.** What about the “SEC peak of extracted β2AR” value [3] of the same compound?
**A.** Its value is “a distinct monodisperse peak”.
